Data as given in the supplement of paper PMC7224384.

How the values were obtained:
[1] = system: MDA-MB-453; assay: drug sensitivity score (DSS), single agent (DSS (weighted AUC score)); higher = more sensitive (stronger viability decrease); extreme values may be limits of the assay; conditions: BLU9931 0 nM; 72 h
How it was run: (§1)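 Each 384-well plate held compounds from the FIMM Oncology set, predispensed in singlicate at five 10-fold dilutions spanning a 10,000-fold range, and each well then received 2000 MDA-MB-453 cells in medium with or without an FGFR4 inhibitor at 100 nM final. Plates stayed at 37 °C, 5% CO2 for 72 h, after which cellular ATP was measured with CellTiterGlo 2.0. Readings were converted per plate into percent viability against control wells, and the drug sensitivity score was taken as a weighted area under a four-parameter logistic fit.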

[2] = system: MDA-MB-453; assay: drug sensitivity score (DSS), in combination with BLU9931 (DSS (weighted AUC score)); higher = more sensitive (stronger viability decrease); extreme values may be limits of the assay; conditions: BLU9931 100 nM; 72 h
How it was run: as §1

SMILES | drug sensitivity score [1] | drug sensitivity score [2]
O=C(O)C1(C(=O)O)CCC1.[NH2-].[NH2-].[Pt+2] [Carboplatin] | 2.2 | 2.6
CC[C@@H]1C(=O)OC[C@@H]1Cc1cncn1C [Pilocarpine] | 1.2 | 0.2
Cc1cc(Nc2ncnc3ccc(NC4=NC(C)(C)CO4)cc23)ccc1Oc1ccn2ncnc2c1 [Tucatinib] | 0.5 | 0.8
C=C1C[C@@H]2CC[C@@]34C[C@H]5O[C@H]6[C@@H](O3)[C@H]3O[C@H](CC[C@@H]3O[C@H]6[C@H]5O4)CC(=O)C[C@@H]3[C@@H](OC)[C@@H](C[C@H](O)CN)O[C@H]3C[C@H]3O[C@@H](CC[C@@H]1O2)C[C@@H](C)C3=C [Eribulin] | 15.5 | 13.4
C=CC[C@@H]1/C=C(\C)C[C@H](C)C[C@H](OC)[C@H]2O[C@@](O)(C(=O)C(=O)N3CCCC[C@H]3C(=O)O[C@H](/C(C)=C/[C@@H]3CC[C@@H](O)[C@H](OC)C3)[C@H](C)[C@@H](O)CC1=O)[C@H](C)C[C@@H]2OC [Tacrolimus] | 2.2 | 0.8
Nc1ncn([C@H]2C[C@H](O)[C@@H](CO)O2)c(=O)n1 [Decitabine] | 0 | 0
N#CC[C@H](C1CCCC1)n1cc(-c2ncnc3[nH]ccc23)cn1 [Ruxolitinib] | 1.2 | 0
CCN(CC)Cc1ccc2cc(COC(=O)Nc3ccc(C(=O)NO)cc3)ccc2c1 [Givinostat] | 11 | 10.3
CCn1c(C(=O)N(C2CC2)C2CC2)cc2c3c(ncn3C)c(Nc3cc(C)n(C)n3)nc21 | 0 | 0
CC[C@H](CO)Nc1nc(NCc2ccccc2)c2ncn(C(C)C)c2n1 [Seliciclib] | 0 | 0.2
C[C@H](Nc1ncnc2[nH]cnc12)c1cc2ccc(F)cc2nc1-c1ccccn1 [AMG319] | 1.1 | 0.3
CCCCCCCCCCCCCCCCOP(=O)([O-])OCC[N+](C)(C)C [Miltefosine] | 2.7 | 3.9
CN1CCN(C2CCN(C(=O)Nc3cc(Oc4ccc(NC(=O)C5(C(=O)Nc6ccc(F)cc6)CC5)c(F)c4)ccn3)CC2)CC1 [Golvatinib] | 0.3 | 0
CS(=O)(=O)CCNCc1ccc(-c2ccc3ncnc(Nc4ccc(OCc5cccc(F)c5)c(Cl)c4)c3c2)o1 [Lapatinib] | 6.5 | 7
Cc1cc([C@@H](C)Nc2ccccc2C(=O)O)c2nc(N3CCOCC3)cc(=O)n2c1 [AZD-6482] | 7.5 | 7.4
Nc1nc(OCc2cc(Br)cs2)c2[nH]cnc2n1 [Lomeguatrib] | 0 | 0
N[C@@H]1CCCN(c2c(/C=C3\SC(=O)NC3=O)cccc2-c2ccccc2)C1 [AZD1208] | 0.3 | 0.1
Cc1ccc(-c2cc(C(F)(F)F)nn2-c2ccc(S(N)(=O)=O)cc2)cc1 [Celecoxib] | 0.4 | 0
C[C@H]1CN(C2COC2)CCN1c1ccc(Nc2cc(-c3ccnc(N4CCn5c(cc6c5CC(C)(C)C6)C4=O)c3CO)cn(C)c2=O)nc1 [GDC-0853] | 0 | 0

SMILES | drug sensitivity score [1] | drug sensitivity score [2]
CCOc1cc2ncc(C#N)c(Nc3ccc(OCc4ccccn4)c(Cl)c3)c2cc1NC(=O)/C=C/CN(C)C [Neratinib] | 15.4 | 17.9
COc1cc2c(cc1OC(C)C)[C@H](c1ccc(Cl)cc1)N(c1ccc(N(C)C[C@H]3CC[C@H](N4CCN(C)C(=O)C4)CC3)cc1)C(=O)C2 [NVP-CGM097] | 7.9 | 8.5
CN1CCN(c2ccc(C(=O)Nc3n[nH]c4ccc(Cc5cc(F)cc(F)c5)cc34)c(NC3CCOCC3)c2)CC1 [Entrectinib] | 0 | 0
O=c1sn(-c2cccc3ccccc23)c(=O)n1Cc1ccccc1 [Tideglusib] | 0 | 0
Cc1nc(Nc2ncc(C(=O)Nc3c(C)cccc3Cl)s2)cc(N2CCN(CCO)CC2)n1 [Dasatinib] | 0 | 0
CC(=O)c1cc2c(o1)C(=O)c1ccccc1C2=O [Napabucasin] | 0 | 0
Nc1ccccc1NC(=O)c1ccc(CNC(=O)OCc2cccnc2)cc1 [Entinostat] | 9.2 | 8.7
Nc1nc(F)nc2c1ncn2[C@@H]1O[C@H](CO)[C@@H](O)[C@@H]1O [Fludarabine] | 0 | 0
CC(C)NC(=O)COc1cccc(-c2nc(Nc3ccc4[nH]ncc4c3)c3ccccc3n2)c1 [KD025] | 5.6 | 6
O=C(Nc1ccc(OC(F)(F)Cl)cc1)c1cnc(N2CC[C@@H](O)C2)c(-c2cc[nH]n2)c1 [Asciminib] | 3.4 | 1.2
CCn1c(=O)c(-c2ccc(Cl)cc2Cl)cc2cnc(Nc3ccc(N4CCNCC4)c(F)c3)nc21 [FRAX486] | 3.9 | 1.1
Cc1cc(Nc2nc(N[C@@H](C)c3ncc(F)cn3)ncc2Cl)[nH]n1 [AZD1480] | 0.3 | 0
CCc1cncnc1N1CCN(Cc2nc3ccc(C(F)(F)F)cc3[nH]2)CC1 | 0.6 | 0.6
NS(=O)(=O)OC[C@@H]1C[C@@H](n2ccc3c(N[C@H]4CCc5ccccc54)ncnc32)C[C@@H]1O [Pevonedistat] | 7 | 3.3
C[C@@H]1C=C2C(=O)O[C@@H]3CC[C@H](C1)[C@]23O [Galiellalactone] | 7.4 | 7.7
COc1cc2ncnc(Nc3ccc(F)c(Cl)c3)c2cc1OCCCN1CCOCC1 [Gefitinib] | 6.9 | 8
O=C1CCC(N2C(=O)c3ccccc3C2=O)C(=O)N1 (configuration not stated) [Thalidomide] | 0 | 1
Nc1nc(NC2CC2)cc(-c2cccc(Cl)c2Cl)n1 [TH588] | 2.4 | 1.7
CCS(=O)(=O)c1cccc(-c2cc(C(=O)NC3CCN(C)CC3)c(C)c3[nH]c4ncc(C)cc4c23)c1 [TAK-901] | 2.7 | 3

SMILES | drug sensitivity score [1] | drug sensitivity score [2]
N#Cc1ccc2[nH]c(O)c(-c3ccc(CN4CCOCC4)cn3)c2c1 [AZD-1080] | 0 | 0
CNC(=O)c1cc(Oc2ccc(NC(=O)Nc3ccc(Cl)c(C(F)(F)F)c3)c(F)c2)ccn1 [Regorafenib] | 3 | 1.5
CNC(=O)c1ccc2cc([C@@]3(O)CCn4cncc43)ccc2c1 [Orteronel] | 0 | 0
Cn1cnc2c(F)c(Nc3ccc(Br)cc3F)c(C(=O)NOCCO)cc21 [Binimetinib] | 0 | 0.2
CO[C@H]1CC[C@H](N2C(=O)CNc3ncc(-c4ccc(C(C)(C)O)nc4)nc32)CC1 [CC-223] | 6.1 | 6
CCc1cnn2c(NCc3ccc[n+]([O-])c3)cc(N3CCCC[C@H]3CCO)nc12 [Dinaciclib] | 22.1 | 21.5
C[C@@H](C(=O)O)c1ccc(-c2ccccc2)c(F)c1 [Tarenflurbil] | 0 | 0
CCC(C)(C)C(=O)O[C@H]1C[C@@H](C)C=C2C=C[C@H](C)[C@H](CC[C@@H]3C[C@@H](O)CC(=O)O3)[C@H]21 [Simvastatin] | 0 | 0.1
CO[C@@]12[C@H](COC(N)=O)C3=C(C(=O)C(C)=C(N)C3=O)N1C[C@@H]1N[C@@H]12 [Mitomycin C] | 0 | 0
Cc1[nH]nc(C(F)(F)F)c1Cc1sc2c(c1C(=O)N1C[C@](C)(O)CO1)c(=O)n(C)c(=O)n2C(C)C [AZD3965] | 0 | 0
CN[C@@H](C)C(=O)N[C@H]1CN(C(=O)CC(C)C)CC[C@H]2CC[C@@H](C(=O)NC(c3ccccc3)c3ccccc3)N2C1=O [AT-406] | 5.1 | 5.1
CCCc1cc(C)[nH]c(=O)c1CNC(=O)c1cc(-c2ccnc(N3CCN(C)CC3)c2)cc2c1cnn2C(C)C [GSK343] | 0 | 0
COc1ccc(S(=O)(=O)Nc2cccnc2Nc2ccc(O)cc2)cc1 [ABT-751] | 7.4 | 7.9
CC(=O)O[C@]1(C(C)=O)CC[C@H]2[C@@H]3C=C(C)C4=CC(=O)CC[C@]4(C)[C@H]3CC[C@@]21C [Megestrol acetate] | 2.2 | 0
O=C(Nc1cc(Oc2cc(F)c(NC(=O)C3(C(=O)Nc4ccc(F)cc4)CC3)cc2F)ccn1)C1CC1 [Altiratinib] | 7.1 | 3.5
CC[C@@]1(O)C(=O)OCc2c1cc1n(c2=O)Cc2cc3c(CN(C)C)c(O)ccc3nc2-1 [Topotecan] | 14.7 | 12.5
COc1ccc(CCc2nc3cc(-c4c(C)noc4C)ccc3n2C[C@H](C)N2CCOCC2)cc1Cl [SGC-CBP30] | 9 | 9.1
O=C1NC(=O)[C@@H](c2cn3c4c(cccc24)CCC3)[C@@H]1c1c[nH]c2ccccc12 [Tivantinib] | 4.4 | 2
